Paper PMC12207590, “Substrate Specificity of the Organic Cation Transporters MATE1 and MATE2K and Functional Overlap with OCT1 and OCT2” (Journal of Medicinal Chemistry, 2025)
Read-outs that look alike come from different tables or passages of the source.

Experiments:
MATE1 = biological target: T1, MATE1 (Homo sapiens, UniProt Q96FL8); assay: Uptake ratio in MATE1-overexpressing HEK293 cells vs empty vector (2.5 μM, 1 min, HPLC-MS/MS); type: cell-based
T1 sequence (Q96FL8 1-570): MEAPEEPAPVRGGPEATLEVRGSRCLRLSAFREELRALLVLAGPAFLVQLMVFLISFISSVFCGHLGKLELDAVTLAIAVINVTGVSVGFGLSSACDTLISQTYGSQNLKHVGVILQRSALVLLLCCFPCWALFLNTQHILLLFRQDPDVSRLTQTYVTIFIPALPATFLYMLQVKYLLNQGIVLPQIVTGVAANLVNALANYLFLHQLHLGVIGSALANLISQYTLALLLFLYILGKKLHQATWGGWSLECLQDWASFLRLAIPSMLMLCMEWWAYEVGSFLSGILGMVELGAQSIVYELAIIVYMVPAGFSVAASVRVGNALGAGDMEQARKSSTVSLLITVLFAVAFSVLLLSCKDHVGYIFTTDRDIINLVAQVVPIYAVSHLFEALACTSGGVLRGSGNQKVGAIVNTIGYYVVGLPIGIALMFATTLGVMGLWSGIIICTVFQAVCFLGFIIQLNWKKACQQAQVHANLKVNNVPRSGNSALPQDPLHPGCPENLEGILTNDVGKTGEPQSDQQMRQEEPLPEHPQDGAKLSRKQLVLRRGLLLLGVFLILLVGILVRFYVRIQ

MATE2K = MATE2K (Homo sapiens, UniProt Q86VL8); assay: Uptake ratio in MATE2K-overexpressing HEK293 cells vs empty vector (2.5 μM, 1 min, HPLC-MS/MS); type: cell-based
Sequence of MATE2K (Q86VL8 1-566 isoform Q86VL8-3): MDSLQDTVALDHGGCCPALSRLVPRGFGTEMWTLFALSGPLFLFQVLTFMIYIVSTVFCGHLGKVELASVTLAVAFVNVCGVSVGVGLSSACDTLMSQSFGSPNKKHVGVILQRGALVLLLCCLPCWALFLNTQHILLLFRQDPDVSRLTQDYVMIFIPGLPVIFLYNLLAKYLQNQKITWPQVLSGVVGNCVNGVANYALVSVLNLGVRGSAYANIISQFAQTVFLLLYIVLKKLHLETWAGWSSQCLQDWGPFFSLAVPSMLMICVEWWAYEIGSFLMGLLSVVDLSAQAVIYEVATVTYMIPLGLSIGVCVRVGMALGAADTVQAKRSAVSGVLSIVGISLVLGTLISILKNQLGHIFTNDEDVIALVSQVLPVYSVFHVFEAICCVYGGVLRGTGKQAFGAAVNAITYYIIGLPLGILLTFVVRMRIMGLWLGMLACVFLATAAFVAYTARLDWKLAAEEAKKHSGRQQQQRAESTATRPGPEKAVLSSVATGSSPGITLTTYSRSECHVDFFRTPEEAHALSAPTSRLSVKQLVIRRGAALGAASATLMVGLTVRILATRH

[1] = fold uptake over empty vector, 2.5 μM, 1 min
[2] = uptake ratio MATE1-overexpressing vs empty-vector HEK293 cells, 2.5 μM, 1 min, mean
[3] = uptake ratio MATE2K-overexpressing vs empty-vector HEK293 cells, 2.5 μM, 1 min, mean
[4] = mean ratio of uptake in MATE1-overexpressing HEK293 cells vs empty vector, 2.5 μM, 1 min
[5] = mean ratio of uptake in MATE2K-overexpressing HEK293 cells vs empty vector, 2.5 μM, 1 min
[6] = fold uptake over empty vector, 2.5 μM, 1 min, listed as reproterol

For COc1ccc(CCN)cc1O [4-Methoxy-m-tyramine], the “MATE1 (uptake ratio)” value (MATE1) was 3.09, the MATE1 ratio (MATE1) was 3.09 and the “MATE2 (uptake ratio)” value (MATE2K) was 1.19. The MATE2K ratio (MATE2K) was 1.19.
For CNS(=O)(=O)CCc1ccc2[nH]cc(C3CCN(C)CC3)c2c1 [Naratriptan], the MATE1 ratio (MATE1; [1]) was 10.81 and the MATE2K ratio (MATE2K; [1]) was 8.34.
COC(=O)[C@H]1[C@H]2C[C@@H]3c4[nH]c5cc(OC)ccc5c4CCN3C[C@H]2C[C@@H](OC(=O)c2cc(OC)c(OC)c(OC)c2)[C@@H]1OC [Reserpine] gave an MATE1 ratio (MATE1; [1]) of 1.61, an MATE1 (MATE1; [2]) of 1.61 and an MATE2K ratio (MATE2K; [1]) of 1.08. It also gave an MATE2 (MATE2K; [3]) of 1.08.
With c1cnc2cc3c(cc2n1)[C@@H]1CNC[C@H]3C1 [Varenicline] the “MATE1 ratio in this study” value (MATE1; Table S1, 2.5 μM, 1 min) was 1.20, the MATE1 (MATE1; [2]) was 1.2 and the “MATE2K ratio in this study” value (MATE2K; Table S1, 2.5 μM, 1 min) was 1.30. The MATE2 (MATE2K; [3]) was 1.3.
Compound COc1ccccc1N1CCN(CCCNc2cc(=O)n(C)c(=O)n2C)CC1 [Urapidil] has an MATE1 (MATE1; [2]) of 1.19 and an MATE2 (MATE2K; [3]) of 1.17.
In the case of Nc1nc(=O)c2nc(CNc3ccc(C(=O)N[C@@H](CCC(=O)O)C(=O)O)cc3)cnc2[nH]1 [Folic acid], the MATE1 ratio (MATE1; [1]) is reported as 1.00 and the MATE2K ratio (MATE2K; [1]) is reported as 1.13.
C/C=C(\C)C(=O)OC(CC(=O)[O-])C[N+](C)(C)C (centres unmarked) [Tiglylcarnitine] was tested, and the MATE1 (MATE1; [2]) was 0.96 and the MATE2 (MATE2K; [3]) was 0.76.
With Cc1cnc(Nc2ccc(OCCN3CCCC3)cc2)nc1Nc1cccc(S(=O)(=O)NC(C)(C)C)c1 [Fedratinib] the MATE1 ratio (MATE1; [1]) was 1.16 and the MATE2K ratio (MATE2K; [1]) was 0.87.
Work on CO[C@H]1/C=C/O[C@@]2(C)Oc3c(C)c(O)c4c(O)c(c(/C=N/N5CCN(C)CC5)c(O)c4c3C2=O)NC(=O)/C(C)=C\C=C\[C@H](C)[C@H](O)[C@@H](C)[C@@H](O)[C@@H](C)[C@H](OC(C)=O)[C@@H]1C [Rifampicin] yielded an MATE1 ratio (MATE1; [1]) of 1.02, an MATE1 (MATE1; [2]) of 1.02 and an MATE2K ratio (MATE2K; [1]) of 0.93. It also gave an MATE2 (MATE2K; [3]) of 0.93.
For O=C1CCC(N2C(=O)c3ccccc3C2=O)C(=O)N1 (centres unmarked) [Thalidomide], the MATE1 (MATE1; [2]) was 0.85 and the MATE2 (MATE2K; [3]) was 2.02.
In the case of O=C(O[C@H]1C[N+]2(CCCOc3ccccc3)CCC1CC2)C(O)(c1cccs1)c1cccs1 [Aclidinium], the MATE1 ratio (MATE1; [1]) is reported as 4.73, the “MATE1 (uptake ratio)” value (MATE1; [4]) is reported as 4.73 and the MATE2K ratio (MATE2K; [1]) is reported as 1.17. For the same compound, the “MATE2 (uptake ratio)” value (MATE2K; [5]) was 1.17.
CC(C)(C)NCC(O)c1ccccc1Cl (centres unmarked) [Tulobuterol] gave an MATE1 (MATE1; [2]) of 1.31 and an MATE2 (MATE2K; [3]) of 1.74.
In the case of N=C(N)NCCC[C@H](NC(=O)c1ccc2ccccc2c1O)C(=O)N1CCC[C@H]1C(N)=O [APC366], the “MATE1 (uptake ratio)” value (MATE1) is reported as 19.12, the MATE1 ratio (MATE1) is reported as 19.12 and the “MATE2 (uptake ratio)” value (MATE2K) is reported as 1.41. It also gave an MATE2K ratio (MATE2K) of 1.41.
Work on Nc1ncn([C@H]2C[C@H](O)[C@@H](CO)O2)c(=O)n1 [Decitabine] yielded an MATE1 ratio (MATE1; [1]) of 1.13 and an MATE2K ratio (MATE2K; [1]) of 1.04.
In the case of Cc1ncc(C[n+]2csc(CCOP(=O)(O)O)c2C)c(N)n1 [Thiamine monophosphate], the MATE1 (MATE1; [2]) is reported as 1.05 and the MATE2 (MATE2K; [3]) is reported as 0.89.
With CN(C)CCc1c[nH]c2ccc(CS(=O)(=O)N3CCCC3)cc12 [Almotriptan] the MATE1 ratio (MATE1; [1]) was 4.40, the “MATE1 (uptake ratio)” value (MATE1; [4]) was 4.4 and the MATE2K ratio (MATE2K; [1]) was 2.36. For the same compound, the “MATE2 (uptake ratio)” value (MATE2K; [5]) was 2.36.
For CN(CC(=O)O)C(=N)N [Creatine], the MATE1 ratio (MATE1) was 1.01 and the MATE2K ratio (MATE2K) was 1.07.
CN1CCN(CC(=O)N2c3ccccc3C(=O)Nc3cccnc32)CC1 [Pirenzepine] showed an MATE1 ratio (MATE1; [1]) of 2.80 and an MATE2K ratio (MATE2K; [1]) of 1.36.
CN(C)C(N)=NCCC[C@H](N)C(=O)O [NN-Dimethylarginine] showed an MATE1 ratio (MATE1; [1]) of 0.97 and an MATE2K ratio (MATE2K; [1]) of 0.93.
For CC[N+](CC)(CC)Cc1ccccc1 [Benzyltriethylammonium], the MATE1 ratio (MATE1; [1]) was 25.63, the “MATE1 (uptake ratio)” value (MATE1; [4]) was 25.63 and the MATE2K ratio (MATE2K; [1]) was 4.52. For the same compound, the “MATE2 (uptake ratio)” value (MATE2K; [5]) was 4.52.
Nc1c(Br)cc(Br)cc1CN[C@H]1CC[C@H](O)CC1 [Ambroxol] was tested, and the MATE1 ratio (MATE1; [1]) was 1.00, the “MATE1 (uptake ratio)” value (MATE1; [4]) was 1 and the MATE2K ratio (MATE2K; [1]) was 1.32. The “MATE2 (uptake ratio)” value (MATE2K; [5]) was 1.32.
With COc1ccc(-n2nc(C(N)=O)c3c2C(=O)N(c2ccc(N4CCCCC4=O)cc2)CC3)cc1 [Apixaban] the MATE1 ratio (MATE1; [1]) was 1.24, the “MATE1 (uptake ratio)” value (MATE1; [4]) was 1.24 and the MATE2K ratio (MATE2K; [1]) was 1.15. For the same compound, the “MATE2 (uptake ratio)” value (MATE2K; [5]) was 1.15.
With N[C@@H](Cc1c[nH]c2ccccc12)C(=O)O [Tryptophan] the MATE1 (MATE1) was 0.82 and the MATE2 (MATE2K) was 1.07.
For Clc1cccc(Cl)c1N=C1NCCN1 [Clonidine], the MATE1 ratio (MATE1; [1]) was 1.11, the “MATE1 (uptake ratio)” value (MATE1; [4]) was 1.11 and the MATE2K ratio (MATE2K; [1]) was 1.17. The “MATE2 (uptake ratio)” value (MATE2K; [5]) was 1.17.
Cc1ccc(C(=O)Oc2ccc(C(O)CNC(C)(C)C)cc2OC(=O)c2ccc(C)cc2)cc1 (centres unmarked) [Bitolterol] was tested, and the MATE1 ratio (MATE1; [1]) was 0.38, the “MATE1 (uptake ratio)” value (MATE1; [4]) was 0.38 and the MATE2K ratio (MATE2K; [1]) was 0.57. The “MATE2 (uptake ratio)” value (MATE2K; [5]) was 0.57.
With CC(N)Cc1cccc(C(F)(F)F)c1 (stereo not drawn) [Norfenfluramine (+), Norfenfluramine] the MATE1 ratio (MATE1) was 1.22 and the MATE2K ratio (MATE2K) was 1.45.
In the case of CNCCc1ccccc1 [N-Methyl-2-phenylethylamine], the MATE1 ratio (MATE1; [1]) is reported as 1.27 and the MATE2K ratio (MATE2K; [1]) is reported as 1.50.
Compound CN[C@H]1CC[C@@H](c2ccc(Cl)c(Cl)c2)c2ccccc21 [Sertraline] has an MATE1 ratio (MATE1; [1]) of 1.28, an MATE1 (MATE1; [2]) of 1.28 and an MATE2K ratio (MATE2K; [1]) of 1.10. It also gave an MATE2 (MATE2K; [3]) of 1.1.
Compound CCc1nn(CCCN2CCN(c3cccc(Cl)c3)CC2)c(=O)n1CCOc1ccccc1 [Nefazodone] has an MATE1 ratio (MATE1; [1]) of 1.34 and an MATE2K ratio (MATE2K; [1]) of 1.24.
For COc1cc(CNC(=O)CCCC/C=C/C(C)C)ccc1O [Capsaicin], the MATE1 ratio (MATE1; [1]) was 1.18, the “MATE1 (uptake ratio)” value (MATE1; [4]) was 1.18 and the MATE2K ratio (MATE2K; [1]) was 0.99. For the same compound, the “MATE2 (uptake ratio)” value (MATE2K; [5]) was 0.99.
CNCc1ccc(-c2[nH]c3cc(F)cc4c3c2CCNC4=O)cc1 [Rucaparib] showed an MATE1 ratio (MATE1; [1]) of 3.71, an MATE1 (MATE1; [2]) of 3.71 and an MATE2K ratio (MATE2K; [1]) of 2.03. It also gave an MATE2 (MATE2K; [3]) of 2.03.
With C[C@]12CCC(=O)C=C1CC[C@@H]1[C@@H]2CC[C@@]2(C)[C@H]1CC[C@]2(C)O [17-Alpha-methyltestosterone] the “MATE1 (uptake ratio)” value (MATE1) was 1.17, the MATE1 ratio (MATE1) was 1.17 and the “MATE2 (uptake ratio)” value (MATE2K) was 1.22. For the same compound, the MATE2K ratio (MATE2K) was 1.22.
For CC(C1=C(CCN(C)C)Cc2ccccc21)c1ccccn1 (centres unmarked) [Dimethindene], the MATE1 ratio (MATE1; [1]) was 0.99 and the MATE2K ratio (MATE2K; [1]) was 1.02.
For Cn1c(=O)c2c(ncn2CCCNCC(O)c2cc(O)cc(O)c2)n(C)c1=O (centres unmarked) [Reproterol], the MATE1 ratio (MATE1; [1]) was 5.18, the MATE1 ratio (MATE1; [6]) was 5.2 and the MATE1 (MATE1; [2]) was 5.18. For the same compound, the MATE2K ratio (MATE2K; [1]) was 17.96, the MATE2K ratio (MATE2K; [6]) was 17.9 and the MATE2 (MATE2K; [3]) was 17.96.
With COC(=O)[C@@H]1[C@H]2CC[C@@H](C[C@@H]1O)N2C [Methylecgonine] the MATE1 ratio (MATE1) was 1.54 and the MATE2K ratio (MATE2K) was 1.36.
Compound COC(=O)[C@@H]1[C@H]2C[C@H]3c4[nH]c5ccccc5c4CCN3C[C@@H]2CC[C@@H]1O [Yohimbin] has an MATE1 (MATE1; [2]) of 1.11 and an MATE2 (MATE2K; [3]) of 1.35.
With N=C(N)NCCCCNC(=N)N [Arcaine, 1,4-diguanidinobutane] the MATE1 ratio (MATE1; [1]) was 40.20, the MATE1 ratio (MATE1; fold uptake over empty vector, 2.5 μM, 1 min, listed as arcaine) was 40 and the “MATE1 (uptake ratio)” value (MATE1; [4]) was 40.2. The MATE2K ratio (MATE2K; [1]) was 16.29 and the “MATE2 (uptake ratio)” value (MATE2K; [5]) was 16.29.
For COc1ccc2c3c([nH]c2c1)C(C)=NCC3 [Harmaline], the MATE1 ratio (MATE1) was 1.19 and the MATE2K ratio (MATE2K) was 1.15.
In the case of CC(=O)N[C@@H](CS)C(=O)O [N-Acetyl-L-cysteine], the MATE1 ratio (MATE1; [1]) is reported as 1.02 and the MATE2K ratio (MATE2K; [1]) is reported as 0.95.
Work on Nc1cccc2c1C(=O)N(C1CCC(=O)NC1=O)C2=O (centres unmarked) [Pomalidomide] yielded an MATE1 ratio (MATE1; [1]) of 1.08 and an MATE2K ratio (MATE2K; [1]) of 0.89.
